For test [1], the target named is T1, MBP-16E6 (Human papillomavirus 16, UniProt P03126, C104S/C118S/C147S/C87S). The test can be described thus: biochemical.
In test [2] the target is T1, MBP-16E6. Conditions: for Ratio to wild-type: N-terminal modified peptides, KD of WT divided by KD.
The mark [3] stands for this setting: KD, nM, TABLE 2B, BLI competition.
Setting [4] is: KD in nM, N-terminal modified peptides, competition mode, N = 2 or 3, SEM of curve fitting.

Several values for one entry are separate records, joined by “and”; a condition that tells them apart may be missing. Equal entries are not always repeated. Square brackets hold non-standard residues; d marks the D form. Peptide text beside a SMILES is read from it. * marks the point of attachment. Acetyl(9-fluorenyl) = O=C(CC1c2ccccc2-c2ccccc21)*; Anthracene1carbonyl = O=C(c1cccc2cc3ccccc3cc12)*; 2Nal = N[C@@H](Cc1ccc2ccccc2c1)C(=O)O; Gly(cPent) = N[C@H](C(=O)O)C1CCCC1; 1Naphthoyl = O=C(c1cccc2ccccc12)*; Ala(cPr) = N[C@@H](CC1CC1)C(=O)O; Hyp = O=C(O)[C@@H]1C[C@@H](O)CN1; hPhe = N[C@@H](CCc1ccccc1)C(=O)O; Gly(cBu) = N[C@H](C(=O)O)C1CCC1; Aad = N[C@@H](CCCC(=O)O)C(=O)O; Cba = N[C@@H](CC1CCC1)C(=O)O; Nva = CCC[C@H](N)C(=O)O; Aib = CC(C)(N)C(=O)O; Dha = C=C(N)C(=O)O

T1 sequence (P03126 whole entry C104S/C118S/C147S/C87S, looked up): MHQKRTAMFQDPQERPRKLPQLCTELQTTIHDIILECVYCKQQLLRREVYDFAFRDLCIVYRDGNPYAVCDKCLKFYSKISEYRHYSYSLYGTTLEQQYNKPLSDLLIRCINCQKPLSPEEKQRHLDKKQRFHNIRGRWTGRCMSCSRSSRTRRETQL

As to `CC[C@H](C)[C@H](NC(=O)CC1c2ccccc2-c2ccccc21)C(=O)N1CCC[C@H]1C(=O)N[C@@H](CCC(=O)O)C(=O)N[C@@H](CO)C(=O)N[C@@H](CO)C(=O)N[C@@H](CCC(=O)O)C(=O)N[C@@H](CC(C)C)C(=O)N[C@H](C(=O)N[C@@H](CC(C)C)C(=O)N[C@@H](CCC(N)=O)C(=O)N[C@@H](CCC(=O)O)C(=O)N[C@@H](CC(C)C)C(=O)N[C@@H](CC(C)C)C(=O)NCC(=O)N[C@@H](CCC(=O)O)C(=O)N[C@@H](CCC(=O)O)C(=O)N[C@@H](CCCNC(=N)N)C(=O)N[C@@H](CCCNC(=N)N)C(=O)N[C@@H](C)C(=O)N[C@@H](C)C(=O)N[C@@H](CCCCNC(=O)c1cccc2cc3ccccc3cc12)C(N)=O)[C@@H](C)O` [Entry 6] ({Acetyl(9-fluorenyl)}-IPESSELTLQELLGEERRAAK(Anthracene1carbonyl)-NH2), on MBP-16E6 [1] (setting [3]), binding was characterised by a dissociation constant (Kd) of 3.7 ± 1.9 nM.

Turning to `CC[C@H](C)[C@H](NC(=O)[C@@H](N)CC1CCCCC1)C(=O)N1CCC[C@H]1C(=O)N[C@@H](CCC(=O)O)C(=O)N[C@@H](CO)C(=O)N[C@@H](CO)C(=O)N[C@@H](CCC(=O)O)C(=O)N[C@@H](CC(C)C)C(=O)N[C@H](C(=O)N[C@@H](CC(C)C)C(=O)N[C@@H](CCC(N)=O)C(=O)N[C@@H](CCC(=O)O)C(=O)N[C@@H](CC(C)C)C(=O)N[C@@H](CC(C)C)C(=O)NCC(=O)N[C@@H](CCC(=O)O)C(=O)N[C@@H](CCC(=O)O)C(=O)N[C@@H](CCCNC(=N)N)C(=O)N[C@@H](CCCNC(=N)N)C(N)=O)[C@@H](C)O` [Peptide N22], the Ratio to wild-type on MBP-16E6 [2] came out at 1.4. The equilibrium dissociation constant (Kd) (as a rule, the free concentration of one partner at which half of the binding sites on the other are occupied at equilibrium, for simple one-to-one binding) at MBP-16E6 [1] (setting [4]) came out at 1660 ± 705 nM.

As for `CC[C@H](C)[C@H](NC(=O)CC1c2ccccc2-c2ccccc21)C(=O)N1CCC[C@H]1C(=O)N[C@@H](CCC(=O)O)C(=O)N[C@@H](CO)C(=O)N[C@@H](C)C(=O)N[C@@H](CCC(=O)O)C(=O)N[C@@H](CC(C)C)C(=O)N[C@H](C(=O)N[C@@H](C)C(=O)N[C@@H](CCC(N)=O)C(=O)N[C@@H](CCC(=O)O)C(=O)N[C@@H](C)C(=O)N[C@@H](C)C(=O)NCC(=O)N[C@@H](CCC(=O)O)C(=O)N[C@@H](CCC(=O)O)C(=O)N[C@@H](CCCNC(=N)N)C(=O)N[C@@H](CCCNC(=N)N)C(=O)N[C@@H](C)C(=O)N[C@@H](C)C(=O)N[C@@H](CCCCNC(=O)c1cccc2cc3ccccc3cc12)C(N)=O)[C@@H](C)O` [6′-3L3A] ({Acetyl(9-fluorenyl)}-IPESAELTAQEAAGEERRAAK(Anthracene1carbonyl)-NH2), at MBP-16E6 [2] (TABLE 2B, BLI competition), the “KD, nM” value is reported as “n.b”.

In the case of `C=C(NC(=O)[C@H](CC1CC1)NC(=O)[C@H](CCc1ccccc1)NC(=O)[C@H](CCC(=O)O)NC(=O)C(C)(C)NC(=O)[C@H](CC1CC1)NC(=O)[C@@H](NC(=O)[C@H](Cc1ccc2ccccc2c1)NC(=O)[C@@H](N)CCCC(=O)O)C1CCC1)C(=O)N[C@@H](CCC(=O)O)C(=O)N[C@@H](CCC(=O)O)C(=O)N[C@@H](CCCNC(=N)N)C(N)=O` [peptide 14] (H-[Aad][2Nal][Gly(cBu)][Ala(cPr)][Aib]E[hPhe][Ala(cPr)][Dha]EER-NH2), the “lower binding affinity compared to peptide 18” value on MBP-16E6 [2] (substitution Leu8Hof) came out at 2 fold.

For `C=C(NC(=O)[C@H](CC(C)C)NC(=O)[C@H](CC(C)C)NC(=O)[C@H](CCCC(=O)O)NC(=O)C(C)(C)NC(=O)[C@H](CC1CC1)NC(=O)[C@@H](NC(=O)[C@H](Cc1ccc2ccccc2c1)NC(=O)[C@@H](N)CCCC(=O)O)C1CCCC1)C(=O)N[C@@H](CCC(=O)O)C(=O)N[C@@H](CCC(=O)O)C(=O)N[C@@H](CCCNC(=N)N)C(N)=O` [peptide 23] (H-[Aad][2Nal][Gly(cPent)][Ala(cPr)][Aib][Aad]LL[Dha]EER-NH2), the “improved affinity compared to parent reactide ELT-DHA9G” value at MBP-16E6 [2] is 50 fold.

Turning to `CC[C@H](C)[C@H](NC(=O)c1c(O)cccc1O)C(=O)N1CCC[C@H]1C(=O)N[C@@H](CCC(=O)O)C(=O)N[C@@H](CO)C(=O)N[C@@H](CO)C(=O)N[C@@H](CCC(=O)O)C(=O)N[C@@H](CC(C)C)C(=O)N[C@H](C(=O)N[C@@H](CC(C)C)C(=O)N[C@@H](CCC(N)=O)C(=O)N[C@@H](CCC(=O)O)C(=O)N[C@@H](CC(C)C)C(=O)N[C@@H](CC(C)C)C(=O)NCC(=O)N[C@@H](CCC(=O)O)C(=O)N[C@@H](CCC(=O)O)C(=O)N[C@@H](CCCNC(=N)N)C(=O)N[C@@H](CCCNC(=N)N)C(N)=O)[C@@H](C)O` [Peptide N15], on MBP-16E6 [2], the Ratio to wild-type is listed as 3.1. At MBP-16E6 [1] (setting [4]), this compound yielded a Kd of 767 ± 295 nM.

With `CC[C@H](C)[C@H](N)C(=O)N1CCC[C@H]1C(=O)N[C@@H](CCC(=O)O)C(=O)N[C@@H](CO)C(=O)N[C@@H](CO)C(=O)N[C@@H](CCC(=O)O)C(=O)N[C@@H](CC(C)C)C(=O)N[C@H](C(=O)N[C@@H](CC(C)C)C(=O)N[C@@H](CCC(N)=O)C(=O)N[C@@H](CCC(=O)O)C(=O)N[C@@H](CC(C)C)C(=O)N[C@@H](CC(C)C)C(=O)NCC(=O)N[C@@H](CCC(=O)O)C(=O)N[C@@H](CCC(=O)O)C(=O)N[C@@H](CCCNC(=N)N)C(=O)N[C@@H](CCCNC(=N)N)C(N)=O)[C@@H](C)O` [Peptide 1], the equilibrium dissociation constant (Kd) is 2450 ± 513 nM at MBP-16E6 [1] (setting [3]); 2300 nM and 2400 nM at MBP-16E6 [1] (competition KD, BLI competition with 1-biotin, 30 nM MBP-16E6).

Take `CC[C@H](C)[C@H](NC(=O)CC1c2ccccc2-c2ccccc21)C(=O)N1CCC[C@H]1C(=O)N[C@@H](CCC(=O)O)C(=O)N[C@@H](CO)C(=O)N[C@@H](CO)C(=O)N[C@@H](CCC(=O)O)C(=O)N[C@@H](CC(C)C)C(=O)N[C@H](C(=O)N[C@@H](CC(C)C)C(=O)N[C@@H](CCC(N)=O)C(=O)N[C@@H](CCC(=O)O)C(=O)N[C@@H](CC(C)C)C(=O)N[C@@H](CC(C)C)C(=O)NCC(=O)N[C@@H](CCC(=O)O)C(=O)N[C@@H](CCC(=O)O)C(=O)N[C@@H](CCCNC(=N)N)C(=O)N[C@@H](CCCNC(=N)N)C(=O)N[C@@H](C)C(=O)N[C@@H](C)C(=O)N[C@@H](CCCCNC(=O)c1cccc2ccccc12)C(N)=O)[C@@H](C)O` [Entry 4] ({Acetyl(9-fluorenyl)}-IPESSELTLQELLGEERRAAK(1Naphthoyl)-NH2): binding on MBP-16E6 [1] (setting [3]) was characterised by a dissociation constant (Kd) of 47 ± 7.4 nM.

On MBP-16E6 [1] (setting [3]), `CC[C@H](C)[C@H](NC(=O)CC1c2ccccc2-c2ccccc21)C(=O)N1CCC[C@H]1C(=O)N[C@@H](CCC(=O)O)C(=O)N[C@@H](CO)C(=O)N[C@@H](CO)C(=O)N[C@@H](CCC(=O)O)C(=O)N[C@@H](CC(C)C)C(=O)N[C@H](C(=O)N[C@@H](CC(C)C)C(=O)N[C@@H](CCC(N)=O)C(=O)N[C@@H](CCC(=O)O)C(=O)N[C@@H](CC(C)C)C(=O)N[C@@H](CC(C)C)C(=O)NCC(=O)N[C@@H](CCC(=O)O)C(=O)N[C@@H](CCC(=O)O)C(=O)N[C@@H](CCCNC(=N)N)C(=O)N[C@@H](CCCNC(=N)N)C(=O)N[C@@H](C)C(=O)N[C@@H](C)C(=O)N[C@@H](CCCCNC(=O)CC1c2ccccc2-c2ccccc21)C(N)=O)[C@@H](C)O` [Entry 2] ({Acetyl(9-fluorenyl)}-IPESSELTLQELLGEERRAAK(Acetyl(9-fluorenyl))-NH2) registered a dissociation constant (Kd) of 8.6 ± 3.2 nM.

Take `CC[C@H](C)[C@H](NC(=O)C1CCc2ccccc21)C(=O)N1CCC[C@H]1C(=O)N[C@@H](CCC(=O)O)C(=O)N[C@@H](CO)C(=O)N[C@@H](CO)C(=O)N[C@@H](CCC(=O)O)C(=O)N[C@@H](CC(C)C)C(=O)N[C@H](C(=O)N[C@@H](CC(C)C)C(=O)N[C@@H](CCC(N)=O)C(=O)N[C@@H](CCC(=O)O)C(=O)N[C@@H](CC(C)C)C(=O)N[C@@H](CC(C)C)C(=O)NCC(=O)N[C@@H](CCC(=O)O)C(=O)N[C@@H](CCC(=O)O)C(=O)N[C@@H](CCCNC(=N)N)C(=O)N[C@@H](CCCNC(=N)N)C(N)=O)[C@@H](C)O` (stereo partly shown) [Peptide N3]: on MBP-16E6 [2] (relative to fluorene-modified N1 / parent modification), the “decrease in binding by change of terminal group” value is listed as ~ 42 fold.

For the compound `C=C(NC(=O)[C@H](CCC)NC(=O)[C@H](CC1CCC1)NC(=O)[C@H](CCC(=O)O)NC(=O)CNC(=O)[C@H](CCC)NC(=O)[C@@H]1C[C@@H](O)CN1C(=O)[C@H](CCC)NC(=O)[C@@H](N)CCCC(=O)O)C(=O)N[C@@H](CCC(=O)O)C(=O)N[C@@H](CCC(=O)O)C(=O)N[C@@H](CCCNC(=N)N)C(N)=O` [peptide 3] (H-[Aad][Nva][Hyp][Nva]GE[Cba][Nva][Dha]EER-NH2), the inhibition constant (Ki) (as a rule, a measure of affinity in units of concentration, obtained from inhibition or displacement) on MBP-16E6 [1] was determined as 0.466 µM. This counts as sub-micromolar.

For the compound `CC[C@H](C)[C@H](NC(=O)CC1c2ccccc2-c2ccccc21)C(=O)N1CCC[C@H]1C(=O)N[C@@H](CCC(=O)O)C(=O)N[C@@H](CO)C(=O)N[C@@H](C)C(=O)N[C@@H](CCC(=O)O)C(=O)N[C@@H](CC(C)C)C(=O)N[C@H](C(=O)N[C@@H](CC(C)C)C(=O)N[C@@H](CCC(N)=O)C(=O)N[C@@H](CCC(=O)O)C(=O)N[C@@H](CC(C)C)C(=O)N[C@@H](CC(C)C)C(=O)NCC(=O)N[C@@H](CCC(=O)O)C(=O)N[C@@H](CCC(=O)O)C(=O)N[C@@H](CCCNC(=N)N)C(=O)N[C@@H](CCCNC(=N)N)C(=O)N[C@@H](C)C(=O)N[C@@H](C)C(=O)N[C@@H](CCCCNC(=O)c1cccc2cc3ccccc3cc12)C(N)=O)[C@@H](C)O` [peptide 6′] ({Acetyl(9-fluorenyl)}-IPESAELTLQELLGEERRAAK(Anthracene1carbonyl)-NH2), the Kd on MBP-16E6 [1] (KD in nM, TABLE 2C, BLI competition) turned out to be 1.4 ± 0.6 nM; on MBP-16E6 [1] (setting [3]), 2.7 ± 1.2 nM; on MBP-16E6 [1] (competition KD, BLI competition, values in text), 2.7 nM.

For `C=C(NC(=O)[C@H](C)NC(=O)[C@H](C)NC(=O)[C@H](CCC(=O)O)NC(=O)[C@H](CCC(N)=O)NC(=O)[C@H](C)NC(=O)[C@@H](NC(=O)[C@H](CC(C)C)NC(=O)[C@H](CCC(=O)O)NC(=O)[C@H](C)NC(=O)[C@H](CO)NC(=O)[C@H](CCC(N)=O)NC(=O)[C@@H]1CCCN1C(=O)[C@@H](NC(=O)CC1c2ccccc2-c2ccccc21)[C@@H](C)CC)[C@@H](C)O)C(=O)N[C@@H](CCCNC(=N)N)C(=O)N[C@@H](CCCNC(=N)N)C(=O)N[C@@H](CCCCN)C(=O)N[C@@H](CCCCN)C(=O)N[C@@H](CCCCNC(=O)c1cccc2cc3ccccc3cc12)C(N)=O` [Peptide 13-3L3A] ({Acetyl(9-fluorenyl)}-IPQSAELTAQEAA[Dha]RRKKK(Anthracene1carbonyl)-NH2), the “KD in nM” value at MBP-16E6 [2] (TABLE 2C, BLI competition) is “n.b”. Also, on MBP-16E6 [2] (TABLE 2E, competition with immobilized 1-Biotin following 30 min incubation with 16E6), the “Apparent Ki in nM” value is “n.b”.
